Test results taken from publication PMC4613501, “Diversity in the structures and ligand-binding sites of nematode fatty acid and retinol-binding proteins revealed by Na-FAR-1 from Necator americanus” (Biochemical Journal, 2015).

Columns and labels:
Assay type in all cases: binding
[1] = target: T1, Na-FAR-1 (Necator americanus, UniProt W2SRJ3); test: fluorescence emission spectroscopy; settings: delipidated protein
T1 construct: gene NECAME_14208; His-tagged; expressed in E. coli BL21 (lambda DE3), selenomethionine form in B834
T1 sequence (W2SRJ3 entry or part of it): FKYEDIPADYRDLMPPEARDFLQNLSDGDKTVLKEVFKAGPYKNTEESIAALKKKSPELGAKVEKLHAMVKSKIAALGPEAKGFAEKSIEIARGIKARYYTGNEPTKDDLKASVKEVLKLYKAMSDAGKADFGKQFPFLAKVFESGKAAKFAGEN

[2] = target: T1, Na-FAR-1; test: NMR titration ([…] HSQC chemical shift perturbation); settings: apo protein 0.4 mM, sodium oleate, 20 mM sodium phosphate pH 7.20, 311 K; multiple sites, no fitted constant
[3] = target: T1, Na-FAR-1; test: X-ray crystallography; settings: selenomethionine-labelled protein; co-purified from E. coli, palmitate chosen as fit to a C16 fatty acid density; internal cavity around Lys96

`CN(C)c1cccc2c(S(=O)(=O)NCCCCCCCCCCC(=O)O)cccc12` [DAUDA] was tested, and the fluorescence emission spectroscopy ([1]; PBS, 1 μM DAUDA, 1 μM protein, excitation 345 nm) was “Na-FAR-1 bound the fluorescent FA analogue DAUDA and the naturally fluorescent lipid retinol”.
`CCCCCCCC/C=C\CCCCCCCC(=O)O` [oleic acid] was tested, and the “NMR titration (15N HSQC chemical shift perturbation)” value [2] was “the protein binds up to at least four oleate molecules”.
`CCCCCCCCCCCCCCCC(=O)O` [palmitate] was tested, and the X-ray crystallography [3] was “Since the predominant FA found in E. coli lipids is palmitate, we fitted this”.
With `CC1=C(/C=C/C(C)=C/C=C/C(C)=C/CO)C(C)(C)CCC1` [retinol] the fluorescence emission spectroscopy ([1]; retinol in ethanol, 1.5 μM protein, excitation 350 nm, isomer not stated) was “Na-FAR-1 bound the fluorescent FA analogue DAUDA and the naturally fluorescent lipid retinol”.
